The source of these data is patent US8598157B2, “5-alkynyl-pyridines” (Boehringer Ingelheim International GmbH, priority 2011, dated 2013).

One test concerns H460 cells. The test is described as follows: alamarBlue H460 cell assay (antiproliferative/cytotoxicity). Format: cell-based. Conditions: NCI-H460; H460 human lung carcinoma cells. In short, it runs like this:
(§1)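 Seed cells, incubate overnight 37 °C CO2; add cpds (final 10 μM, 1:3 serial, 10 steps, duplicates); incubate 5-6 d; alamarBlue 8 h 37 °C; fluorescence ex 530-560/em 590 nm; blank-subtracted EC50.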
(The colour change of resazurin is a common sign of viable cells or microbes.)

A further test relates to MB453 cells. Put plainly: alamarBlue MB453 cell assay (antiproliferative/cytotoxicity). It is filed as cell-based. Conditions: Homo sapiens; MDA MB 453 breast cancer cell line. Summed up: as §1
The test system of another test is MCF7 cells. Put plainly: alamarBlue MCF7 cell assay (antiproliferative/cytotoxicity). It is filed as cell-based. Conditions: MCF7 human breast cancer cell line. Summed up: as §1
A further test concerns BT474 cells. The test is described as follows: alamarBlue BT474 cell assay (antiproliferative/cytotoxicity). Format: cell-based. Conditions: BT-474 human breast cancer cell line. In short, it runs like this: as §1
The subject of a further test is U87 cells. Put plainly: U87 cell assay (antiproliferative/cytotoxicity). Format: cell-based. Conditions: U-87MG human glioblastoma cells. In short, it runs like this: as §1
Another test has as its target PI3Kalpha (Homo sapiens (Human), UniProt P42336). The test is described as follows: Inhibition of PI3Kalpha-induced PIP-2 phosphorylation (filter-binding assay). Format: biochemical. Conditions: 33P-ATP, p85alpha/His-p110alpha, read-out: IC50 PI3Kα. Summed up:
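Radiometric filter-binding assay: PI3Kα (25 ng/well) preincubated 20 min at room temperature with compound and PIP2-containing lipid vesicles plus phosphotyrosine PDGFRβ peptide. Reaction started with cold ATP (1 μM final) and [33P]-ATP and run 120 min at room temperature; filter-captured radioactivity counted, IC50 from duplicate dilution series.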

Sequence of PI3Kalpha (P42336 whole entry): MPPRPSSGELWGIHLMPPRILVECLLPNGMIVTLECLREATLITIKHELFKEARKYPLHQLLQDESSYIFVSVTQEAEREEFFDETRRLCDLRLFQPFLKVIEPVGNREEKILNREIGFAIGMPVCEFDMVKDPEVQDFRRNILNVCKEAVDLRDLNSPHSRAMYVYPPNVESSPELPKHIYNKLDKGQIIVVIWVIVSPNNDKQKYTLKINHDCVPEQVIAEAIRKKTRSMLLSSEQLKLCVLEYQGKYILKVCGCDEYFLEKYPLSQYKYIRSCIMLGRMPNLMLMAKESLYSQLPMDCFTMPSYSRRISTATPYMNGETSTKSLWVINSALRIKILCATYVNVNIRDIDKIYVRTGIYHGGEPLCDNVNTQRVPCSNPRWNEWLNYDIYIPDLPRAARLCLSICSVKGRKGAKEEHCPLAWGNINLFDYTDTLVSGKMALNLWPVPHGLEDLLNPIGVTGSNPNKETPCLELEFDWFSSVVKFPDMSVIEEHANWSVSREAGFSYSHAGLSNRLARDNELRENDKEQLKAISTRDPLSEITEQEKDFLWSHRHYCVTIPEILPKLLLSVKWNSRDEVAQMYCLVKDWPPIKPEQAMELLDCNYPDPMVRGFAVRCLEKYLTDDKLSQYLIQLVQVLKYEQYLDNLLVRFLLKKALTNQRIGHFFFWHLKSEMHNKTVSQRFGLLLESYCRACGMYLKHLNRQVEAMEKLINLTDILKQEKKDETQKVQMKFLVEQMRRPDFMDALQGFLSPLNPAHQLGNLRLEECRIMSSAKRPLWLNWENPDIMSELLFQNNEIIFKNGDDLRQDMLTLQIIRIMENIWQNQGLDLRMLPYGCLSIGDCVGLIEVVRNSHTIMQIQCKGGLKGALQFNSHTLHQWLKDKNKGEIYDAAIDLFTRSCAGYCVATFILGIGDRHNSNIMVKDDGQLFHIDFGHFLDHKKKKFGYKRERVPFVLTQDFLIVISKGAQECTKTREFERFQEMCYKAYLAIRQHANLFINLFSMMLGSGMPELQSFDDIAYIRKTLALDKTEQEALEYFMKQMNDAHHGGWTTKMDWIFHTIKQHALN

On to `CC(=O)N1CCN(c2ncnc(C)c2C#Cc2cnc(C)c(NS(=O)(=O)c3ccc(F)cc3F)c2)CC1` [Example I-17, N-{5-[4-(4-Acetyl-piperazin-1-yl)-6-methyl-pyrimidin-5-ylethynyl]-2-methyl-pyridin-3-yl}-2,4-difluoro-benzenesulfonamide], for which the EC50 in the test with H460 cells was 965 nM; in the test on MB453 cells, 521 nM; in the test on MCF7 cells, 73 nM; in the test on BT474 cells, 354 nM; in the test on U87 cells it was 1890 nM. Moreover, on PI3Kalpha, the IC50 turned out to be 0.79 nM.

`Cc1ncc(C#Cc2c(C)ncnc2N(C)C(C)C)cc1NS(=O)(=O)c1ccc(F)cc1F` [Example I-15, 2,4-Difluoro-N-{5-[4-(isopropyl-methyl-amino)-6-methyl-pyrimidin-5-ylethynyl]-2-methyl-pyridin-3-yl}-benzenesulfonamide]: the EC50 in the test on H460 cells was 376 nM; in the test on MB453 cells, 898 nM; in the test with MCF7 cells, 163 nM; in the test with BT474 cells it was 318 nM; in the test on U87 cells, 1670 nM. On PI3Kalpha, the concentration for half-maximal inhibition (IC50) amounted to 0.74 nM.

Regarding `Cc1ncc(C#Cc2c(C)ncnc2N2CCOCC2)cc1NS(=O)(=O)c1ccccc1Br` [Example I-8, 2-Bromo-N-[2-methyl-5-(4-methyl-6-morpholin-4-yl-pyrimidin-5-ylethynyl)-pyridin-3-yl]-benzenesulfonamide], the EC50 in the test with H460 cells was found to be 47 nM; in the test on MB453 cells it was 143 nM; in the test on MCF7 cells, 46 nM; in the test with BT474 cells, 134 nM; in the test with U87 cells it was 205 nM. In addition, the half-maximal inhibitory concentration (IC50) on PI3Kalpha turned out to be 1 nM.

Turning to `Cc1ncnc(N2CCOCC2)c1C#Cc1cncc(NS(=O)(=O)c2cnn(C)c2)c1` [Example I-23, 1-Methyl-1H-pyrazole-4-sulfonic acid [5-(4-methyl-6-morpholin-4-yl-pyrimidin-5-ylethynyl)-pyridin-3-yl]-amide], the half-maximal effective concentration (EC50) in the test with H460 cells was 2180 nM; with MB453 cells, 1040 nM; in the test with MCF7 cells, 214 nM; with BT474 cells it was 3500 nM; with U87 cells, 1750 nM. Besides, on PI3Kalpha, the 50% inhibitory concentration (IC50) came out at 0.66 nM.

With `Cc1ncc(C#Cc2c(C)ncnc2N2CCCCC2)cc1NS(=O)(=O)c1ccc(F)cc1F` [Example I-14, 2,4-Difluoro-N-[2-methyl-5-(4-methyl-6-piperidin-1-yl-pyrimidin-5-ylethynyl)-pyridin-3-yl]-benzenesulfonamide], the half-maximal effective concentration (EC50) with H460 cells amounted to 245 nM; with MB453 cells, 444 nM; in the test with MCF7 cells, 114 nM; in the test with BT474 cells, 252 nM; in the test on U87 cells it was 615 nM. The half-maximal inhibitory concentration (IC50) on PI3Kalpha amounted to 0.85 nM.

With `Cc1ncc(C#Cc2c(C)ncnc2N2CCOCC2)cc1NS(=O)(=O)c1cn(C)cn1` [Example I-9, 1-Methyl-1H-imidazole-4-sulfonic acid [2-methyl-5-(4-methyl-6-morpholin-4-yl-pyrimidin-5-ylethynyl)-pyridin-3-yl]-amide], the half-maximal effective concentration (EC50) in the test with H460 cells is 1460 nM; with MB453 cells it was 1070 nM; with MCF7 cells it was 748 nM; with BT474 cells, 856 nM; in the test on U87 cells, 1450 nM. The IC50 on PI3Kalpha came to 1 nM.

Consider `Cc1ncc(C#Cc2c(C)ncnc2N2CCOCC2)cc1NS(=O)(=O)c1cc(F)cc(F)c1` [Example I-31, 3,5-Difluoro-N-[2-methyl-5-(4-methyl-6-morpholin-4-yl-pyrimidin-5-ylethynyl)-pyridin-3-yl]-benzenesulfonamide], for which the EC50 worked out at 509 nM with H460 cells; 245 nM in the test with MB453 cells; 50 nM in the test with MCF7 cells; 178 nM in the test with BT474 cells; 609 nM with U87 cells. For the same molecule, on PI3Kalpha, the IC50 worked out at 0.97 nM.

In the case of `Cc1ncc(C#Cc2c(C)ncnc2N2CCOCC2)cc1NS(=O)(=O)c1ccnn1C` [Example I-56, 2-Methyl-2H-pyrazole-3-sulfonic acid [2-methyl-5-(4-methyl-6-morpholin-4-yl-pyrimidin-5-ylethynyl)-pyridin-3-yl]-amide], the concentration giving a half-maximal response (EC50) was determined as 756 nM in the test with H460 cells; 239 nM with MB453 cells; 125 nM with MCF7 cells; 487 nM in the test with BT474 cells; 779 nM with U87 cells. The IC50 on PI3Kalpha is 0.44 nM.

For `Cc1ncc(C#Cc2c(C)ncnc2N2CCOCC2)cc1NS(=O)(=O)c1ccccc1` [Example I-40, N-[2-Methyl-5-(4-methyl-6-morpholin-4-yl-pyrimidin-5-ylethynyl)-pyridin-3-yl]-benzenesulfonamide], the EC50 was 120 nM with H460 cells; 145 nM in the test with MB453 cells; 49 nM with MCF7 cells; 147 nM with BT474 cells; 386 nM in the test with U87 cells. The IC50 on PI3Kalpha turned out to be 0.28 nM.

With `Cc1ncc(C#Cc2c(C)ncnc2N2CCOCC2)cc1NS(=O)(=O)C(C)C` [Example I-38, Propane-2-sulfonic acid [2-methyl-5-(4-methyl-6-morpholin-4-yl-pyrimidin-5-ylethynyl)-pyridin-3-yl]-amide], the half-maximal effective concentration (EC50) in the test on H460 cells was determined as 829 nM; in the test on MB453 cells, 642 nM; in the test with MCF7 cells it was 304 nM; in the test on BT474 cells, 1220 nM; with U87 cells it was 836 nM. The IC50 on PI3Kalpha is 2 nM.

With `Cc1ncc(C#Cc2c(C)ncnc2N2CCOCC2)cc1NS(=O)(=O)c1ccc(F)cc1F` [Example I-41, 2,4-Difluoro-N-[2-methyl-5-(4-methyl-6-morpholin-4-yl-pyrimidin-5-ylethynyl)-pyridin-3-yl]-benzenesulfonamide], the concentration for a half-maximal effect (EC50) was found to be 146 nM in the test with H460 cells; 102 nM in the test with MB453 cells; 19 nM with MCF7 cells; 69 nM in the test on BT474 cells; 287 nM in the test with U87 cells. On PI3Kalpha, the half-inhibitory concentration (IC50) was 0.51 nM.

For `Cc1ncc(C#Cc2c(C)ncnc2N2CCOCC2)cc1NS(=O)(=O)c1ccccc1C(F)(F)F` [Example I-13, N-[2-Methyl-5-(4-methyl-6-morpholin-4-yl-pyrimidin-5-ylethynyl)-pyridin-3-yl]-2-trifluoromethyl-benzenesulfonamide], the concentration giving a half-maximal response (EC50) in the test with H460 cells was determined as 23 nM; in the test on MB453 cells it was 63 nM; with MCF7 cells it was 18 nM; in the test with BT474 cells, 69 nM; in the test with U87 cells, 108 nM. The half-maximal inhibitory concentration (IC50) on PI3Kalpha came out at 0.63 nM.

Consider `COc1ncc(C#Cc2c(C)ncnc2N2CCOCC2)cc1NS(=O)(=O)c1ccccc1` [Example I-1, N-[2-Methoxy-5-(4-methyl-6-morpholin-4-yl-pyrimidin-5-ylethynyl)-pyridin-3-yl]-benzenesulfonamide], for which the EC50 amounted to 19 nM in the test with H460 cells; 47 nM in the test on MB453 cells; 4 nM in the test on MCF7 cells; 14 nM in the test on BT474 cells; 55 nM in the test on U87 cells. Besides, at PI3Kalpha, the concentration for half-maximal inhibition (IC50) turned out to be 0.4 nM.

As to `Cc1ncc(C#Cc2c(C)ncnc2N2CCN(C)CC2)cc1NS(=O)(=O)c1ccc(F)cc1F` [Example I-18, 2,4-Difluoro-N-{2-methyl-5-[4-methyl-6-(4-methyl-piperazin-1-yl)-pyrimidin-5-ylethynyl]-pyridin-3-yl}-benzenesulfonamide], the EC50 amounted to 269 nM in the test with H460 cells; 418 nM in the test with MB453 cells; 72 nM in the test with MCF7 cells; 221 nM with BT474 cells; 358 nM in the test on U87 cells. For the same molecule, the IC50 at PI3Kalpha amounted to 1 nM.

Turning to `Cc1ncc(C#Cc2c(C)ncnc2N2CCOCC2)cc1NS(=O)(=O)c1c(C)noc1C` [Example I-53, 3,5-Dimethyl-isoxazole-4-sulfonic acid [2-methyl-5-(4-methyl-6-morpholin-4-yl-pyrimidin-5-ylethynyl)-pyridin-3-yl]-amide], the 50% effective concentration (EC50) with H460 cells is 793 nM; in the test on MB453 cells, 915 nM; in the test with MCF7 cells, 135 nM; in the test with BT474 cells it was 884 nM; in the test on U87 cells it was 1280 nM. Also, the IC50 on PI3Kalpha worked out at 2 nM.

Regarding `Cc1ncnc(N2CCOCC2)c1C#Cc1cncc(NS(=O)(=O)c2cccs2)c1` [Example I-21, Thiophene-2-sulfonic acid [5-(4-methyl-6-morpholin-4-yl-pyrimidin-5-ylethynyl)-pyridin-3-yl]-amide], the EC50 was 357 nM in the test with H460 cells; 155 nM in the test with MB453 cells; 40 nM with MCF7 cells; 196 nM in the test on BT474 cells; 340 nM in the test with U87 cells. At PI3Kalpha, the IC50 came out at 0.53 nM.

In the case of `CCc1ncnc(N2CCC(O)CC2)c1C#Cc1cnc(C)c(NS(=O)(=O)c2ccc(F)cc2)c1` [Example I-66, N-{5-[4-Ethyl-6-(4-hydroxy-piperidin-1-yl)-pyrimidin-5-ylethynyl]-2-methyl-pyridin-3-yl}-4-fluoro-benzenesulfonamide], the concentration for a half-maximal effect (EC50) with H460 cells stood at 444 nM; with MB453 cells it was 175 nM; in the test on MCF7 cells, 145 nM; with BT474 cells, 91 nM; with U87 cells, 540 nM. The concentration for half-maximal inhibition (IC50) at PI3Kalpha worked out at 0.48 nM.

With `Cc1ncnc(N2CCOCC2)c1C#Cc1cncc(NS(=O)(=O)c2cccnc2)c1` [Example I-22, Pyridine-3-sulfonic acid [5-(4-methyl-6-morpholin-4-yl-pyrimidin-5-ylethynyl)-pyridin-3-yl]-amide], the concentration for a half-maximal effect (EC50) in the test on H460 cells was found to be 4500 nM; with MB453 cells, 1420 nM; in the test with MCF7 cells, 1380 nM; with BT474 cells, 3410 nM; with U87 cells, 10000 nM. On PI3Kalpha, the half-maximal inhibitory concentration (IC50) came to 0.8 nM.

Broadly, the EC50 is the concentration that produces a half-maximal response. A higher EC50 goes with a need for much substance. A word on the IC50: it is the concentration that inhibits the measured activity by half.
